We go through four molecules from patent US9096550B2, “Bryostatin analogues and methods of making and using thereof” (UNIVERSITY OF UTAH RESEARCH FOUNDATION, priority 2008, dated 2015).

Assay [1] deals with U937 cells. In words: Attachment of U937 cells. In kind it is cell-based, human. As for the experimental part: (§1) U937 cells (Sundstrom, C.; Nilsson, K.: Establishment and characterization of a human histiocytic lymphoma cell line (U-937). Int. J. Cancer 1976, 17: 565-577.), purchased from ATCC (Manassas, Va.) and cultured in RPMI-1640 medium supplemented with 10% FBS (ATCC, Manassas, Va.), were plated in 35 mm dishes at a density of 2×10^5 living cells/ml and treated with different concentrations of the drugs or DMSO. After 72 hours, the number of cells in the supernatant (non-attached cells) and the number of attached cells (after trypsinization) were counted using a Beckman particle counter (Beckman Coulter Inc., Fullerton, Calif.). The number of attached cells is expressed as percent of total cells (FIGS. 8-10).
U937 cells were treated with PMA (0.1-100 nM), bryostatin 1 (1-1000 nM), the indicated compound (1-1000 nM), 10 nM PMA with different concentrations of bryostatin 1 (1-1000 nM) or 10 nM PMA with different concentrations of indicated compound (1-1000 nM) for 72 hours. The number of attached cells and total cells were counted and the attached cells were graphed as percent of total cells. The bars and error bars represent the average and the standard error of the mean of five independent experiment (FIGS. 8-10).
(§2) U937 cells (Sundstrom and Nilsson, 1976), purchased from ATCC (Manassas, Va.) and cultured in RPMI-1640 medium supplemented with 10% FBS (ATCC, Manassas, Va.), were plated in 35 mm dishes at a density of 1×10^5 living cells/ml and treated with different concentrations of the drugs or DMSO. After 72 hours, the number of cells in the supernatant (non-attached cells) and the number of attached cells (after trypsinization) were counted using a particle counter. The number of attached cells is expressed as percent of total cells.
U937 cells were treated with PMA (0.01-100 nM), bryostatin1 (0.1-1000 nM), analogue 12 (MERLE 28) (0.1-1000 nM), 10 nM PMA with different concentrations of bryostatin 1 (0.1-1000 nM) or 10 nM PMA with different concentrations of analogue 12 (0.1-1000 nM). The number of attached cells and total cells were counted and the attached cells were graphed as percent of total cells. The bars and error bars represent the average and the standard error of the mean of at least three independent experiments.
(§3) U-937 cells (Sundstrom and Nilsson, 1976), purchased from ATCC (Manassas, Va.) and cultured in RPMI-1640 medium supplemented with 10% FBS (ATCC, Manassas, Va.), were plated in 35 mm dishes at a density of 1×10^5 living cells/ml and treated with different concentrations of the drugs or DMSO. After 72 hours, the number of cells in the supernatant (non-attached cells) and the number of attached cells (after trypsinization) were counted using a particle counter. The number of attached cells is expressed as percent of total cells.
U-937 cells were treated with PMA (0.1-100 nM), bryostatin 1 (1-1000 nM), the indicated compound (1-1000 nM), 10 nM PMA with different concentrations of bryostatin 1 (1-1000 nM) or 10 nM PMA with different concentrations of indicated compound (1-1000 nM) for 72 hours. The number of attached cells and total cells were counted and the attached cells were graphed as percent of total cells. The bars and error bars represent the average and the standard error of the mean of at least three independent experiments.

Assay [2] concerns U937 cells. Briefly: Inhibition of U937 cell proliferation. In kind it is cell-based, human. How it is done:
as §1
U937 cells were treated with PMA (0.1-100 nM), bryostatin 1 (1-1000 nM), the indicated compound (1-1000 nM), 10 nM PMA with different concentrations of bryostatin 1 (1-1000 nM) or 10 nM PMA with different concentrations of indicated compound (1-1000 nM). The number of attached and non-attached cells was counted and the number of total cells was expressed as % of control. The bars and error bars represent the average and the standard error of the mean of five independent experiments (FIGS. 8-10).
as §2
U937 cells were treated with PMA (0.01-100 nM), bryostatin1 (0.1-1000 nM), analogue 12 (0.1-1000 nM), 10 nM PMA with different concentrations of bryostatin 1 (0.1-1000 nM) or 10 nM PMA with different concentrations of analogue 12 (0.1-1000 nM). The numbers of attached and non-attached cells were counted and the number of total cells was expressed as % of control. The bars and error bars represent the average and the standard error of the mean of at least three independent experiments.
as §3
U-937 cells were treated with PMA (0.1-100 nM), bryostatin 1 (1-1000 nM), the indicated compound (1-1000 nM), 10 nM PMA with different concentrations of bryostatin 1 (1-1000 nM) or 10 nM PMA with different concentrations of indicated compound (1-1000 nM). The number of attached and non-attached cells was counted and the number of total cells was expressed as % of control. The bars and error bars represent the average and the standard error of the mean of at least three independent experiments.

A further assay deals with LNCaP cells. Briefly: Proliferation of LNCaP cells (Incucyte confluency). In kind it is cell-based, human. As to conditions: 300 nM PMA combined with 1000 nM compound, 80 hrs. How it is done: FIGS. 12A-D show the effect of different compounds on the proliferation and apoptosis of LNCaP cells. […] Time-elapsed images were taken with an Incucyte imaging system every hour for 4 days. The proliferation of LNCaP cells is presented as increase in confluency (read by the instrument) at 80 hrs. Data represent the means+SEM of three independent experiments. […] Apoptosis was measured 2 days after treatment by flow cytometry using 7-AAD and Yo-Pro-1 as described in Materials and Methods. Data represent the means+SEM of three independent experiments.
FIGS. 13A and 13B show the proliferation and morphology of LNCaP cells detected by Incucyte. LNCaP cells were treated with DMSO as control, 300 nM PMA, 1000 nM bryostatin 1 or the bryologue MERLE 21, or with 300 nM PMA in combination with 1000 nM bryostatin 1 or the bryologue MERLE 21. Time-elapsed images were taken by the Incucyte imaging system every hour. […] The arrow indicates the time of treatment. Data are representative of three independent experiments.
The extent of confluency of LNCaP cells (from ATCC, Manassas, Va.) and the morphological changes after treatment were followed in real time using Incucyte (Essen Instruments, Ann Arbor, Mich.). Images of LNCaP cells plated into 24 well plates were taken every 1 hour by the instrument before and after treatment for a total of 4 days. The confluency of the cells was calculated by the instrument's program. The proliferation of LNCaP cells was expressed as the difference in cell confluency before and after treatment.

The test system of a further assay is C3H10T1/2 cells. In words: Release of arachidonic acid from C3H10T1/2 cells. As to conditions: % of the maximal PMA-induced response relative to the DMSO control, 2 hour treatment. In kind it is cell-based, mouse. How it is done: FIGS. 15A and 15B show the release of arachidonic acid from treated C3H10T1/2 cells. The cells were labeled with [^3H]arachidonic acid for 18 hrs, treated with DMSO as control, different concentrations of PMA (0.1-100 nM), bryostatin 1 (1-1000 nM), the bryologues (1-1000 nM) (A) or 100 nM PMA in combination with 1000 nM bryostatin 1, or the bryologues MERLE 21, 22, 23. The radioactive arachidonic acid released into the medium was quantitated after 2 hour treatment. The response of 100 nM PMA was taken as 100%. Data represent the means+SEM of four (FIG. 15A) or three (FIG. 15B) independent experiments.
C3H10T1/2 cells (ATCC, Manassas, Va.) were plated in 24 well plates and treated with different drugs or with DMSO as control. The release of arachidonic acid after 2 hour treatment was measured as described previously (Dell′Aquila M L, Herald C L, Kamano Y, Pettit G R, Blumberg P M. Differential effects of byrostatins and phorbol esters on arachidonic acid metabolite release and epidermal growth factor binding in C3H10T1/2 cells. Cancer Res 1988; 48: 3702-3708).

The mark [3] stands for this setting: 10 nM PMA with different concentrations of compound.

For the molecule `C=C1C[C@H]2CC3(O)O[C@H](C[C@@H](O)CC(=O)O[C@@H]([C@@H](C)O)C[C@@H]4C/C(=C\C(=O)OC)[C@H](OC(=O)/C=C/C=C/CCC)[C@@](O)(O4)C(C)(C)/C=C/[C@@H](C1)O2)C[C@H](OC(C)=O)C3(C)C` [MERLE 28], the “block of PMA-induced attachment of U937 cells” value with U937 cells [1] (setting [3]) is “functional antagonist of PMA and blocks the effect of the phorbol ester”. Besides, the “attachment of U937 cells” value in the assay with U937 cells [1] (compound alone, 72 hours) is recorded as “approaches that of bryostatin 1 itself”. Besides, in the assay on U937 cells [2] (setting [3]), the “block of PMA inhibition of U937 cell proliferation” value is “Both of these aspects of bryostatin 1 induced biological response are captured”. Also, the “inhibition of U937 cell proliferation” value in the assay with U937 cells [2] (compound alone) is “very similar to those for bryostatin 1”.

Regarding `C=C1C[C@@H]2C[C@@H]3CC(=C)C[C@H](/C=C/C(C)(C)[C@]4(O)O[C@@H](C/C(=C\C(=O)OC)[C@@H]4OC(=O)c4ccccc4)C[C@H]([C@@H](C)O)OC(=O)C[C@H](O)C[C@H](C1)O2)O3` [MERLE 21], the “block of the PMA inhibition of LNCaP cell growth” value with LNCaP cells is on record as “did not appear to quite reach the level observed for bryostatin 1”. In the assay on C3H10T1/2 cells, the “arachidonic acid release, average level of response” value (“arachidonic acid release” below) came to 73%.

With `C=C1C[C@@H]2C[C@@H]3CC(=C)C[C@H](/C=C/C(C)(C)[C@]4(O)O[C@@H](C/C(=C\C(=O)OC)[C@@H]4OC(=O)CCCCCCC)C[C@H]([C@@H](C)O)OC(=O)C[C@H](O)C[C@H](C1)O2)O3` [MERLE 22], the “block of the PMA inhibition of LNCaP cell growth” value in the assay with LNCaP cells is recorded as “did not appear to quite reach the level observed for bryostatin 1”. The “arachidonic acid release” value in the assay with C3H10T1/2 cells is listed as 69%.

Take `C=C1C[C@@H]2C[C@@H]3CC(=C)C[C@H](/C=C/C(C)(C)[C@]4(O)O[C@@H](C/C(=C\C(=O)OC)[C@@H]4OC(=O)/C=C/C=C/CCC)C[C@H]([C@@H](C)O)OC(=O)C[C@H](O)C[C@H](C1)O2)O3` [MERLE 23]: the “block of the PMA inhibition of LNCaP cell growth” value with LNCaP cells was “did not appear to quite reach the level observed for bryostatin 1”. Also, in the assay on C3H10T1/2 cells, the “arachidonic acid release” value is recorded as 64%.
